Source: patent US9505742B2, “3,4-dihydro-2H-isoquinoline-1-one and 2,3-dihydro-isoindol-1-one compounds” (Hoffmann-La Roche Inc., priority 2013, dated 2016)

What was measured:
CYP11B2 = CYP11B2 (Homo sapiens, UniProt P19099); conditions: patients with primary aldosteronism, cited from earlier work
[1] = rat CKD model, cited from earlier work; for plasma aldosterone: FAD286 4 weeks, spironolactone 4 and 8 weeks of treatment
[2] = rats with experimental heart failure; cited from earlier work
human CYP11B2 = molecular target: T1, human CYP11B2 (Homo sapiens, UniProt P19099); assay: G-402 cellular enzyme assay, human CYP11B2 (aldosterone release, HTRF); format: cell-based; conditions: G-402 cells expressing human CYP11B2; 1 μM Deoxycorticosterone
T1 construct: The expression plasmids contains the ORF for either human/cyno CYP11B1 or CYP11B2; expressed in transfected cells
T1 sequence (P19099 25-503): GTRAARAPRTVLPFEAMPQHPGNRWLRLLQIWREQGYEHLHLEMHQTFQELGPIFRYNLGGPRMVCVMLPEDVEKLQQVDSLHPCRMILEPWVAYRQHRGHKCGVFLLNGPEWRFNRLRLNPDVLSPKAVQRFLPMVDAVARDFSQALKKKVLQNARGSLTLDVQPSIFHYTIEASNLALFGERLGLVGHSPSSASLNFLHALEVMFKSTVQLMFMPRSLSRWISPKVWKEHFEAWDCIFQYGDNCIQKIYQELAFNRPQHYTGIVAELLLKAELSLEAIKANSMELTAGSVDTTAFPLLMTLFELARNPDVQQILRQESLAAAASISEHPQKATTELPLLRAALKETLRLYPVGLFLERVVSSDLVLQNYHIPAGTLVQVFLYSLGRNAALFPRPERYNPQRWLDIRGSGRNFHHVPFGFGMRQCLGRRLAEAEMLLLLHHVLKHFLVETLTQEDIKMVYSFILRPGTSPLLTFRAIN
Description: (§1) Herein we identified the use of the G-402 cell line as a host cell to ectopically express (transiently or stably) enzymes of the CYP11 family. Specifically we developed stable G-402 cells expressing ectopically human CYP11B1, human CYP11B2, human CYP11A1, cynmolgus CYP11B1 or cynomolgus CYP11B2 enzyme activity. Importantly the identified cell line G-402 expresses co-factors (adrenodoxin and adrenodoxin reductase) important for the activity of the CYP11 family and no relevant enzyme activity of the CYP11 family (in comparison to H295R cells) was detected in these cells. Therefore the G-402 cell line is uniquely suited as a host cell for the ectopic expression of enzymes from the CYP11 family. G-402 cells can be obtained from ATCC (CRL-1440) and were originally derived from a renal leiomyoblastoma.
(§2) The expression plasmids contains the ORF for either human/cyno CYP11B1 or CYP11B2 under the control of a suitable promoter (CMV-promoter) and a suitable resistance marker (neomycin). Using standard techniques the expression plasmid is transfected into G-402 cells and these cells are then selected for expressing the given resistance markers. Individual cell-clones are then selected and assessed for displaying the desired enzymatic activity using 11-Deoxycorticosterone (Cyp11B2) or 11-Deoxycortisol (Cyp11B) as a substrate.
(§3) G-402 cells expressing CYP11 constructs were established as described above and maintained in McCoy's 5a Medium Modified, ATCC Catalog No. 30-2007 containing 10% FCS and 400 μg/ml G418 (Geneticin) at 37° C. under an atmosphere of 5% CO2/95% air. Cellular enzyme assays were performed in DMEM/F12 medium containing 2.5% charcoal treated FCS and appropriate concentration of substrate (0.3-10 uM 11-Deoxycorticosterone, 11-Deoxycortisol or Corticosterone). For assaying enzymatic activity, cells were plated onto 96 well plates and incubated for 16 h. An aliquot of the supernatant is then transferred and analyzed for the concentration of the expected product (Aldosterone for CYP11B2; Cortisol for CYP11B1). The concentrations of these steroids can be determined using HTRF assays from CisBio analyzing either Aldosterone or Cortisol.
(§4) Inhibition of the release of produced steroids can be used as a measure of the respective enzyme inhibition by test compounds added during the cellular enzyme assay. The dose dependent inhibition of enzymatic activity by a compound is calculated by means of plotting added inhibitor concentrations (x-axes) vs. measured steroid/product level (y-axes). The inhibition is then calculated by fitting the following 4-parameter sigmoidal function (Morgan-Mercer-Flodin (MMF) model) to the raw data points using the least squares method:
(§5) [formula] wherein, A is the maximum y value, B is the EC50 factor determined using XLFit, C is the minimum y value and D is the slope value.
(§6) EC50 values for compounds claimed herein were tested with the G402-based assay system described. Cyp11B2 enzyme activity was tested in presence of 1 μM Deoxycorticosterone and variable amounts of inhibitors; Cyp11B1 enzyme activity was tested in presence of 1 μM Deoxycortisol and variable amounts of inhibitors.

human CYP11B1 = molecular target: T2, human CYP11B1 (Homo sapiens, UniProt P15538); assay: G-402 cellular enzyme assay, human CYP11B1 (cortisol release, HTRF); format: cell-based; conditions: G-402 cells expressing human CYP11B1; 1 μM Deoxycortisol
T2 construct: The expression plasmids contains the ORF for either human/cyno CYP11B1 or CYP11B2; expressed in transfected cells
T2 sequence (P15538 25-503): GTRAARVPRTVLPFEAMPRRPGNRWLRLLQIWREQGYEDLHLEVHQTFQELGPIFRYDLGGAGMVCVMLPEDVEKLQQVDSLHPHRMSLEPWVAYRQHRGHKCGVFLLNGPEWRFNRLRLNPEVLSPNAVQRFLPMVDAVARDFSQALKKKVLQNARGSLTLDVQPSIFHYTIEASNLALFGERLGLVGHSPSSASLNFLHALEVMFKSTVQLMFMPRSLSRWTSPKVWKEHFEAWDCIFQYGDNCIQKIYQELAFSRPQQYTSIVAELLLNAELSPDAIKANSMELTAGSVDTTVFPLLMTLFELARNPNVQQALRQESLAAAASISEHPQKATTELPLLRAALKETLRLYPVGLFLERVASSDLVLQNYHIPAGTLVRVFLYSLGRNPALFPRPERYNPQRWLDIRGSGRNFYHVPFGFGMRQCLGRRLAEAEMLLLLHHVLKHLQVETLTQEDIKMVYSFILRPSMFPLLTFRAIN
Description: as §1, §2, §3, §4, §5, §6

For `N#Cc1ccc([C@H]2CCc3cncn32)c(F)c1` [LCI699], the circulating aldosterone levels (CYP11B2; oral) is listed as “significantly lower”, the blood pressure (CYP11B2) is listed as “mildly decreased” and the hypokalemia (CYP11B2) is listed as “corrected”. The “selectivity / effects on the glucocorticoid axis” value (CYP11B2) was “poor selectivity”.
For `CC(=O)S[C@@H]1CC2=CC(=O)CC[C@]2(C)[C@H]2CC[C@@]3(C)[C@@H](CC[C@@]34CCC(=O)O4)[C@H]12` [spironolactone], the plasma aldosterone [1] is given as “increased”, the “angiotensin II and salt-stimulated PAI-1 mRNA expression in the aorta and the heart” value [1] is given as “enhanced” and the “renal effects of angiotensin II and high salt (albuminuria, azotemia, renovascular hypertrophy, glomerular injury, PAI-1 and osteopontin mRNA, tubulointerstitial fibrosis)” value [1] is given as “prevented these renal effects”.
In the case of `N#Cc1ccc(C2CCCc3cncn32)cc1` (centres unmarked) [FAD286], the plasma aldosterone [1] is given as “reduced”, the “angiotensin II and salt-stimulated PAI-1 mRNA expression in the aorta and the heart” value [1] is given as “not” and the “renal effects of angiotensin II and high salt (albuminuria, azotemia, renovascular hypertrophy, glomerular injury, PAI-1 and osteopontin mRNA, tubulointerstitial fibrosis)” value [1] is given as “prevented these renal effects”. The “blood pressure and cardiovascular function and structure” value [2] was “improved” and the “kidney function and morphology” value [2] was “improve”.
`CCCS(=O)(=O)N1CCC(c2cncc(N3C(=O)c4ccc(Cl)cc4C3(C)C)c2)C1` (single isomer, unassigned; (+)) [Example 8, (+)-5-chloro-3,3-dimethyl-2-[5-[(3R or 3S)-1-propylsulfonylpyrrolidin-3-yl]pyridin-3-yl]isoindol-1-one] showed an EC50 (human CYP11B2) of 4 nM and an EC50 (human CYP11B1) of 109 nM.
In the case of `CC(C)S(=O)(=O)N1CCC(F)(c2cncc(N3C(=O)c4ccc(C#N)cc4C3(C)C)c2)CC1` [Example 39, 2-[5-(4-Fluoro-1-isopropylsulfonyl-4-piperidyl)-3-pyridyl]-3,3-dimethyl-1-oxo-isoindoline-5-carbonitrile], the EC50 (human CYP11B2) is reported as 9 nM and the EC50 (human CYP11B1) is reported as 1850 nM.
Molecule `COc1ccc2c(n1)C(C)(C)N(c1cncc(C3CCN(C(=O)c4cnn(C)c4)CC3)c1)C2=O` [Example 47, 2-Methoxy-7,7-dimethyl-6-[5-[1-(1-methylpyrazole-4-carbonyl)-4-piperidyl]-3-pyridyl]pyrrolo[3,4-b]pyridin-5-one] has an EC50 (human CYP11B2) of 41 nM and an EC50 (human CYP11B1) of 573 nM.
For `Cc1ccncc1C(=O)N1CCC(c2cncc(N3C(=O)c4ccc(Cl)cc4[C@@H]3C)c2)CC1` (single isomer, unassigned) [Example 29, (−)-(3S or 3R)-5-chloro-3-methyl-2-[5-[1-(4-methylpyridine-3-carbonyl)piperidin-4-yl]pyridin-3-yl]-3H-isoindol-1-one], the EC50 (human CYP11B2) was 9 nM and the EC50 (human CYP11B1) was 117 nM.
In the case of `Cc1ccncc1C(=O)N1CC(c2cncc(N3C(=O)c4ccc(Cl)cc4C3(C)C)c2)C1` [Example 36, 5-Chloro-3,3-dimethyl-2-[5-[1-(4-methylpyridine-3-carbonyl)azetidin-3-yl]pyridin-3-yl]isoindol-1-one], the EC50 (human CYP11B2) is reported as 18 nM and the EC50 (human CYP11B1) is reported as 1400 nM.
In the case of `Cc1ccncc1C(=O)N1CCC(c2cncc(N3Cc4cc(Cl)ccc4C3=O)c2)CC1` [Example 23, 5-Chloro-2-[5-[1-(4-methylpyridine-3-carbonyl)piperidin-4-yl]pyridin-3-yl]-3H-isoindol-1-one], the EC50 (human CYP11B2) is reported as 97 nM and the EC50 (human CYP11B1) is reported as 949 nM.
For `CC1(C)c2cc(Cl)ccc2C(=O)N1c1cncc(C2CN(S(=O)(=O)C3CC3)C2)c1` [Example 35, 5-Chloro-2-[5-(1-cyclopropylsulfonylazetidin-3-yl)pyridin-3-yl]-3,3-dimethylisoindol-1-one], the EC50 (human CYP11B2) was 8 nM and the EC50 (human CYP11B1) was 325 nM.
